# Data as given in ChEMBL document CHEMBL1144075, “New cembranes from the soft coral sarcophyton species” (J Nat Prod, 1999).
# Test system: Oryzias latipes
# Assay: Ichthyotoxicity against Oryzias latipes at 20 ug/mL
# Format: organism-based
# Settings: in vivo
compound,measurement,value
C/C1=C/C[C@@H](C(C)C)/C=C/[C@](C)(O)CC/C=C(\C)CC(=O)C1 [SARTONE E],Activity,Non-toxic
